Experimental data published in patent US20260257980A1, “NOVEL DIMETHYLCHALCONE DERIVATIVE” (CHUNG-ANG UNIVERSITY INDUSTRY-ACADEMIC COOPERATION …, priority 2022, published 2026).

System: C2C12 myoblasts differentiated into myotubes
Assay: Fatty acid oxidation rate (14CO2 from [1-14C] palmitate) in differentiated C2C12 myotubes
Assay type: cell-based
Settings: 10 μM DMC derivative, 24 hours, lysate with 0.2 mmol/L [1-14C] palmitate, 3 hours, positive control AICAR, control compounds CON1-CON6, FIG. 1
Method: To measure the fatty acid oxidation rate, C2C12 myoblasts were primarily cultured in DMEM supplemented with 10% fetal bovine serum, and then cultured for 5 days in DMEM supplemented with 2% horse serum in order to differentiate into myotubes. Then, the differentiated myotubes were treated with 10 μM of the DMC derivative, and cultured for 24 hours, and the cells were then harvested. Next, the harvested cells were lysed using a mitochondrial isolation buffer (250 mmol/L sucrose, 10 mmol/L Tris-HCl, and 1 mmol/L EDTA), treated with 0.2 mmol/L [1-^14C] palmitate, and then allowed to react for 3 hours. Next, the amount of ^14CO2 thus generated was measured, and the measured amount of ^14CO2 was corrected for the total amount of proteins to compare the fatty acid oxidation rate. In this case, AICAR was used as a positive control, and the compounds shown in Table 2 below were used as control compounds.

Compound	fatty acid oxidation rate (amount of 14CO2 generated, corrected for total protein)
COCOc1c(C)c(O)c(C(=O)/C=C/c2cccc(F)c2)c(OC)c1C [Compound 1, 1-(2′-hydroxy-4′-(methoxymethoxy)-6′-methoxy-3′,5′-dimethylphenyl)-3-(3-fluorophenyl)-2-propen-1-one]	higher fatty acid oxidation effect than the derivatives (CON1, CON2)
COc1c(C)c(O)c(C)c(O)c1C(=O)/C=C/c1cccc(F)c1 [Compound 8, 1-(2′,4′-dihydroxy-6′-methoxy-3′,5′-dimethylphenyl)-3-(3-fluorophenyl)-2-propen-1-one]	higher fatty acid oxidation effect than the derivatives (CON3, CON4)
COc1c(C)c(OC)c(C(=O)/C=C/c2cccc(F)c2)c(OC)c1C [Compound 15, 1-(2′,4′,6′-trimethoxy-3′,5′-dimethylphenyl)-3-(3-fluorophenyl)-2-propen-1-one]	higher fatty acid oxidation effect than the derivatives (CON5, CON6)
